Experiment: xn = mol fraction of the nth substance listed
Conditions: 101 kPa, Liquid, Vibrating tube method

OCc1ccccn1 [α-picolyl alcohol] + O
mass density [kg/m3]
Conditions	293.15 K	298.15 K	303.15 K	308.15 K	313.15 K	318.15 K
x1 = 0.05	1033.4	1031.7	1029.2	1027.6	1024.4	1021.6
x1 = 0.15	1077.3	1074.4	1071	1067.6	1064.5	1061.1
x1 = 0.2	1088.5	1085	1080.9	1076.8	1073.1	1069.3
x1 = 0.25	1098.1	1094	1089.6	1085.5	1081.6	1077.8
x1 = 0.3	1106.3	1102.9	1098.9	1095.1	1091.5	1087.9
x1 = 0.35	1112	1107.9	1103.4	1099.3	1095.4	1091.4
x1 = 0.4	1116	1111.7	1106.7	1102.3	1098.2	1094.5
x1 = 0.45	1119.8	1116.2	1111.9	1107.4	1103.6	1099.8
x1 = 0.5	1122.4	1118.9	1114.7	1110.8	1107	1103.2
x1 = 0.55	1124.4	1120.7	1116.3	1112.2	1108.3	1104.5
x1 = 0.6	1125.7	1122.1	1117.9	1113.9	1110	1106.3
x1 = 0.65	1127.5	1123.9	1119.8	1115.9	1112.1	1108.4
x1 = 0.7	1128.4	1124.8	1120.7	1116.9	1113.1	1109.5
x1 = 0.75	1129.3	1125.8	1121.7	1117.7	1114.1	1110.4
x1 = 0.8	1130.2	1126.7	1122.6	1118.7	1115	1111.2
x1 = 0.9	1131.5	1127.9	1123.9	1119.8	1116.1	1112.4
x1 = 0.95	1131.9	1128.3	1124.3	1120.3	1116.6	1112.9
x1 = 1	1132.3	1128.8	1124.7	1120.7	1116.9	1113.3

Source: the NIST ThermoML archive (doi:10.1016/j.fluid.2012.10.024)
